Legend:
[1] = test system: LOX IMVI; assay: NCI60 screening, Melanoma, LOX IMVI; format: cell-based, human
[2] = test system: TK-10; assay: NCI60 screening, Renal Cancer, TK-10; format: cell-based, human
[3] = test system: MDA-MB-435; assay: NCI60 screening, Melanoma, MDA-MB-435; format: cell-based, human
[4] = test system: SF-295; assay: NCI60 screening, CNS Cancer, SF-295; format: cell-based, human
[5] = Body weight of PC-3 xenograft mice receiving the experimental diet; format: in vivo, nude mice; conditions: 450 ppm in diet, compared to controls
Method: Given the increased potency of OSU-A9M compared to the other lead derivatives, an experimental diet was formulated. An AIN-76A rodent diet (American Institute of Nutrition; including primarily casein, sucrose, and corn starch) containing 450 ppm OSU-A9M was made to deliver approximately 50 mg/kg of drug per day to each mouse estimated by food consumption and body weight measurements.

[6] = test system: SF-268; assay: NCI60 screening, CNS Cancer, SF-268; format: cell-based, human
[7] = test system: CCRF-CEM; assay: NCI60 screening, Leukemia, CCRF-CEM; format: cell-based, human
[8] = test system: CAKI-1; assay: NCI60 screening, Renal Cancer, CAKI-1; format: cell-based, human
[9] = test system: K-562; assay: NCI60 screening, Leukemia, K-562; format: cell-based, human
[10] = test system: HOP-62; assay: NCI60 screening, Non-Small Cell Lung Cancer, HOP-62; format: cell-based, human
[11] = Homo sapiens, read-out: LC50 (the source's name)

## Cc1ccc2c(c1)c(CO)cn2S(=O)(=O)c1ccc(Cl)c([N+](=O)[O-])c1 [OSU-A9M, [1-(4-chloro-3-nitro-benzenesulfonyl)-5-methyl-1H-indol-3-yl]-methanol]
[1]
  TGI: 2.86E−7
[1]; Homo sapiens
  GI50: 0.138 µM
[1]; [11]
  CC50: 0.594 µM
[1]; Log10 Concentration −4.0
  Percent Growth: −100%
[1]; Log10 Concentration −5.0
  Percent Growth: −100%
[1]; Log10 Concentration −6.0
  Percent Growth: −86%
[1]; Log10 Concentration −7.0
  Percent Growth: 72%
[1]; Log10 Concentration −8.0
  Percent Growth: 84%
[2]
  TGI: 2.98E−6
[2]; Homo sapiens
  GI50: 1.56 µM
[2]; [11]
  CC50: 5.71 µM
[2]; Log10 Concentration −4.0
  Percent Growth: −89%
[2]; Log10 Concentration −5.0
  Percent Growth: −93%
[2]; Log10 Concentration −6.0
  Percent Growth: 84%
[2]; Log10 Concentration −7.0
  Percent Growth: 83%
[2]; Log10 Concentration −8.0
  Percent Growth: 90%
[3]
  TGI: 2.93E−6
[3]; Homo sapiens
  GI50: 1.52 µM
  LC50 (50% lethal concentration): 5.64 µM
[3]; Log10 Concentration −4.0
  Percent Growth: −92%
[3]; Log10 Concentration −5.0
  Percent Growth: −94%
[3]; Log10 Concentration −6.0
  Percent Growth: 82%
[3]; Log10 Concentration −7.0
  Percent Growth: 87%
[3]; Log10 Concentration −8.0
  Percent Growth: 95%
[4]
  TGI: 3.07E−6
[4]; Homo sapiens
  GI50: 1.62 µM
[4]; [11]
  CC50: 5.81 µM
[4]; Log10 Concentration −4.0
  Percent Growth: −86%
[4]; Log10 Concentration −5.0
  Percent Growth: −93%
[4]; Log10 Concentration −6.0
  Percent Growth: 88%
[4]; Log10 Concentration −7.0
  Percent Growth: 91%
[4]; Log10 Concentration −8.0
  Percent Growth: 77%
[5]
  Body weights of mice receiving the experimental diet: unchanged compared to controls
[6]
  TGI: 3.01E−6
[6]; Homo sapiens
  GI50: 1.65 µM
[6]; [11]
  CC50: 5.49 µM
[6]; Log10 Concentration −4.0
  Percent Growth: −100%
[6]; Log10 Concentration −5.0
  Percent Growth: −100%
[6]; Log10 Concentration −6.0
  Percent Growth: 92%
[6]; Log10 Concentration −7.0
  Percent Growth: 89%
[6]; Log10 Concentration −8.0
  Percent Growth: 86%
[7]
  TGI: 2.58E−6
[7]; Homo sapiens
  GI50: 0.3 µM
[7]; [11]
  CC50: 87.4 µM
[7]; Log10 Concentration −4.0
  Percent Growth: −52%
[7]; Log10 Concentration −5.0
  Percent Growth: −21%
[7]; Log10 Concentration −6.0
  Percent Growth: 14%
[7]; Log10 Concentration −7.0
  Percent Growth: 82%
[7]; Log10 Concentration −8.0
  Percent Growth: 84%
[8]
  TGI: 2.90E−6
[8]; Homo sapiens
  GI50: 1.48 µM
[8]; [11]
  CC50: 5.7 µM
[8]; Log10 Concentration −4.0
  Percent Growth: −95%
[8]; Log10 Concentration −5.0
  Percent Growth: −92%
[8]; Log10 Concentration −6.0
  Percent Growth: 79%
[8]; Log10 Concentration −7.0
  Percent Growth: 95%
[8]; Log10 Concentration −8.0
  Percent Growth: 92%
[9]
  TGI: 3.03E−6
[9]; Homo sapiens, K562
  GI50: 1.02 µM
[9]; Homo sapiens, K562, read-out: LC50 (the source's name)
  CC50: 8.96 µM
[9]; Log10 Concentration −4.0
  Percent Growth: −70%
[9]; Log10 Concentration −5.0
  Percent Growth: −55%
[9]; Log10 Concentration −6.0
  Percent Growth: 51%
[9]; Log10 Concentration −7.0
  Percent Growth: 106%
[9]; Log10 Concentration −8.0
  Percent Growth: 98%
[10]
  TGI: 3.11E−6
[10]; Homo sapiens
  GI50: 1.74 µM
[10]; [11]
  CC50: 5.58 µM

From patent publication US8680133B2, “Alkyl indole-3-carbinol-derived antitumor agents” (The Ohio State University Research Foundation, priority 2009, dated 2014)
